From the NIST ThermoML archive (doi:10.1016/j.jct.2009.06.019)

What was measured:
[1] = 101.33 kPa, Liquid, Vibrating tube method
[2] = xn = mol fraction of the nth substance listed; settings: 101.3 kPa, Liquid, Vibrating tube method

CN1CCN(C)C1=O [1,3-dimethyl-2-imidazolidinone]
[1]
Settings	mass density [kg/m3]
278.15 K	1069.3
288.15 K	1060.43
298.15 K	1051.6
308.15 K	1042.79
313.15 K	1038.38
318.15 K	1034

CN1CCN(C)C1=O [1,3-dimethyl-2-imidazolidinone] + O
mass density [kg/m3], [2]
Settings	278.15 K	288.15 K	298.15 K	308.15 K	313.15 K	318.15 K
x1 = 0.000904	1000.51	999.59	997.49	994.45	992.61	990.61
x1 = 0.001349	1000.75	999.82	997.72	994.65	992.81	990.8
x1 = 0.001765	1000.99	1000.04	997.92	994.84	992.99	990.96
x1 = 0.002486	1001.42	1000.44	998.29	995.19	993.33	991.29
x1 = 0.003566	1002.08	1001.05	998.84	995.7	993.82	991.77
x1 = 0.004326	1002.53	1001.45	999.22	996.05	994.15	992.09
x1 = 0.005478	1003.25	1002.09	999.81	996.59	994.68	992.59
x1 = 0.006268	1003.72	1002.53	1000.22	996.97	995.04	992.94
x1 = 0.006996	1004.16	1002.93	1000.57	997.3	995.36	993.25
x1 = 0.008039	1004.82	1003.54	1001.14	997.82	995.85	993.72
x1 = 0.008854	1005.33	1004.01	1001.57	998.22	996.23	994.08

CN1CCN(C)C1=O [1,3-dimethyl-2-imidazolidinone] + [2H]O[2H]
mass density [kg/m3], [2]
Settings	278.15 K	288.15 K	298.15 K	308.15 K	313.15 K	318.15 K
x1 = 0.001014	1105.53	1105.7	1104.24	1101.46	1099.65	1097.62
x1 = 0.001853	1105.6	1105.72	1104.2	1101.34	1099.52	1097.48
x1 = 0.002463	1105.67	1105.72	1104.15	1101.29	1099.44	1097.38
x1 = 0.003372	1105.77	1105.73	1104.13	1101.19	1099.33	1097.23
x1 = 0.004298	1105.89	1105.78	1104.08	1101.13	1099.22	1097.09
x1 = 0.004982	1105.97	1105.83	1104.06	1101.05	1099.13	1097.01
x1 = 0.006229	1106.16	1105.89	1104.06	1100.95	1099	1096.83
x1 = 0.007163	1106.33	1105.96	1104.06	1100.89	1098.91	1096.72
x1 = 0.008054	1106.48	1106.05	1104.07	1100.87	1098.85	1096.62
x1 = 0.009084	1106.65	1106.13	1104.08	1100.81	1098.77	1096.51
x1 = 0.01051	1106.96	1106.33	1104.16	1100.77	1098.67	1096.37

[2H]O[2H] [water-d2] + CN1CCN(C)C1=O
[2], x2 = 0
Settings	mass density [kg/m3]
278.15 K	1105.46
288.15 K	1105.7
298.15 K	1104.31
308.15 K	1101.59
313.15 K	1099.83
318.15 K	1097.81
